This assay can be described thus: Inhibition of Hepatitis C virus genotype 1b NS5B RNA-dependent-RNA polymerase assessed as reduction in viral replication after 72 hrs by indirect immunofluorescence assay.

For `Cc1cc(C)n2cc(Cn3cc(Cn4ccc5nc(-c6ccccc6F)nc-5c4)nn3)nc2n1`, the EC50 is 0.037 µM.
Turning to `COc1cccc(-n2cc(Cn3ccc4nc(-c5ccccc5F)nc-4c3)nn2)c1`, the EC50 turned out to be 0.013 µM.
`Fc1ccccc1-c1nc2ccn(Cc3cn(-c4ccccc4)nn3)cc-2n1`: the EC50 is 0.023 µM.
In the case of `Cc1cc(C)n2nc(Cn3cc(Cn4ccc5nc(-c6ccccc6F)nc-5c4)nn3)nc2n1`, the EC50 was found to be 0.084 µM.
Regarding `COc1ccc(-n2cc(Cn3ccc4nc(-c5ccccc5F)nc-4c3)nn2)cc1`, the EC50 was determined as 0.0012 µM.
In the case of `CS(=O)(=O)Nc1ccc(-n2cc(Cn3ccc4nc(-c5ccccc5F)nc-4c3)nn2)cc1`, the EC50 was determined as 0.018 µM.
On to `Fc1ccc(-n2cc(Cn3ccc4nc(-c5ccccc5F)nc-4c3)nn2)cc1`, for which the EC50 came out at 0.035 µM.
Regarding `Fc1ccccc1-c1nc2ccn(Cc3cn(Cc4cn5cccnc5n4)nn3)cc-2n1`, the EC50 was 0.021 µM.
Regarding `O=c1ccccn1Cc1ccc(-n2cc(Cn3ccc4nc(-c5ccccc5F)nc-4c3)nn2)cc1`, the EC50 is 0.093 µM.
With `Fc1ccccc1-c1nc2ccn(Cc3cn(-c4ccccc4F)nn3)cc-2n1` the figure was 0.052 µM.
Take `O=c1ncccn1Cc1ccc(-n2cc(Cn3ccc4nc(-c5ccccc5F)nc-4c3)nn2)cc1`: the EC50 is 0.096 µM.

Source of the values: BindingDB's records for doi:10.1016/j.bmc.2018.04.029 (Shenyang Pharmaceutical University, 2018).
